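Five concentrations, 48 hours, 96-well plates. Here, GI50 denotes the concentration required for 50% inhibition of growth.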 Activity calls are given as the source filed them. Rule as the data show it: active = GI50 up to about 1.1 µM and inactive = higher.
Tests used:
Test in all cases: NCI-60 cell line screen, 48 h
[1] = tested on: NCI-H226
[2] = tested on: OVCAR-3
[3] = tested on: RXF 393
[4] = tested on: UACC-257
[5] = tested on: SK-MEL-2
[6] = tested on: U-251
[7] = tested on: NCI/ADR-RES
[8] = tested on: SF-268
[9] = tested on: T47D
[10] = tested on: SN12C
[11] = tested on: SNB-19
[12] = tested on: HCT-15
[13] = tested on: HT-29
[14] = tested on: UO-31
[15] = tested on: IGROV-1
[16] = tested on: RPMI-8226
[17] = tested on: SK-OV-3
[18] = tested on: CAKI-1
[19] = tested on: OVCAR-5
[20] = tested on: OVCAR-4
[21] = tested on: SNB-75
[22] = tested on: HL-60
[23] = tested on: A498
[24] = tested on: NCI-H23
[25] = tested on: Hs-578T
[26] = tested on: NCI-H460
[27] = tested on: KM12
[28] = tested on: EKVX
[29] = tested on: SF-539
[30] = tested on: SF-295
[31] = tested on: SK-MEL-28
[32] = tested on: A549
[33] = tested on: MDA-MB-435
[34] = tested on: HOP-92
[35] = tested on: Malme-3M
[36] = tested on: MOLT-4
[37] = tested on: COLO 205
[38] = tested on: OVCAR-8
[39] = tested on: PC-3
[40] = tested on: NCI-H522
[41] = tested on: HCT-116
[42] = tested on: DU-145
[43] = tested on: SK-MEL-5
[44] = tested on: K562
[45] = tested on: TK-10
[46] = tested on: UACC-62
[47] = tested on: SW-620
[48] = tested on: HOP-62
[49] = tested on: MCF7
[50] = tested on: MDA-MB-231
[51] = tested on: HCC 2998
[52] = tested on: 786-0
[53] = tested on: CCRF-CEM
[54] = tested on: MDA-N
[55] = tested on: ACHN
[56] = tested on: M14
[57] = tested on: SR
[58] = tested on: LOX IMVI

Oc1cn(-c2ccc(Cl)cc2)nc1-c1nnc(-c2ccccc2)o1
GI50 [1]: 0.931 µM (active)
GI50 [2]: 0.404 µM (active)
GI50 [3]: 1.14 µM (inactive)
GI50 [4]: 1.63 µM (inactive)
GI50 [5]: 16.9 µM (inactive)
GI50 [6]: 0.2 µM (active)
GI50 [7]: 0.215 µM (active)
GI50 [8]: 0.34 µM (active)
GI50 [9]: 3.86 µM (inactive)
GI50 [10]: 1.43 µM (inactive)
GI50 [11]: 3.03 µM (inactive)
GI50 [12]: 0.262 µM
GI50 [13]: 2.83 µM (inactive)
GI50 [14]: 0.726 µM (active)
GI50 [15]: 0.989 µM (active)
GI50 [16]: 0.728 µM (active)
GI50 [17]: 12.9 µM (inactive)
GI50 [18]: 0.359 µM (active)
GI50 [19]: 1.58 µM (inactive)
GI50 [20]: 19.5 µM (inactive)
GI50 [21]: > 22.6 µM (inactive)
GI50 [22]: 0.181 µM (active)
GI50 [23]: 9.4 µM (inactive)
GI50 [24]: 0.155 µM (active)
GI50 [25]: 0.484 µM (active)
GI50 [26]: 0.236 µM (active)
GI50 [27]: 0.0847 µM (active)
GI50 [28]: 1.16 µM (inactive)
GI50 [29]: 0.411 µM (active)
GI50 [30]: 0.102 µM (active)
GI50 [31]: 15.2 µM (inactive)
GI50 [32]: 0.118 µM (active)
GI50 [33]: 0.152 µM (active)
GI50 [34]: 18.8 µM (inactive)
GI50 [35]: 8.34 µM (inactive)
GI50 [36]: 0.193 µM (active)
GI50 [37]: 1.87 µM (inactive)
GI50 [38]: 0.277 µM (active)
GI50 [39]: 1.43 µM (inactive)
GI50 [40]: 1.1 µM (active)
GI50 [41]: 0.0769 µM (active)
GI50 [42]: 2.99 µM (inactive)
GI50 [43]: 0.268 µM (active)
GI50 [44]: 0.122 µM (active)
GI50 [45]: 0.17 µM (active)
GI50 [46]: 2.09 µM (inactive)
GI50 [47]: 1.94 µM (inactive)
GI50 [48]: 0.132 µM (active)
GI50 [49]: 0.263 µM (active)
GI50 [50]: 6.01 µM (inactive)

C/C(Cl)=N\OC(=O)Nc1ccc(C)cc1
GI50 [51]: 16.9 µM (inactive)
GI50 [52]: 18.7 µM (inactive)
GI50 [2]: 18 µM (inactive)
GI50 [53]: 2.04 µM (inactive)
GI50 [4]: 18.7 µM (inactive)
GI50 [5]: 18.2 µM (inactive)
GI50 [54]: 16.3 µM (inactive)
GI50 [6]: 16.3 µM (inactive)
GI50 [7]: 19.7 µM (inactive)
GI50 [8]: 15.8 µM (inactive)
GI50 [9]: 16 µM (inactive)
GI50 [10]: 15.7 µM (inactive)
GI50 [11]: > 100 µM (inactive)
GI50 [12]: 15.4 µM
GI50 [13]: 22.9 µM (inactive)
GI50 [14]: 17.4 µM (inactive)
GI50 [15]: 16.7 µM (inactive)
GI50 [16]: > 10 µM (inactive)
GI50 [17]: 17.3 µM (inactive)
GI50 [55]: 15.7 µM (inactive)
GI50 [18]: 16.7 µM (inactive)
GI50 [19]: 18.5 µM (inactive)
GI50 [20]: 18.5 µM (inactive)
GI50 [56]: 17.2 µM (inactive)
GI50 [21]: 12.8 µM (inactive)
GI50 [22]: 2.22 µM (inactive)
GI50 [23]: 18.8 µM (inactive)
GI50 [24]: 20.7 µM (inactive)
GI50 [25]: 28.6 µM (inactive)
GI50 [26]: 18.1 µM (inactive)
GI50 [27]: 17.2 µM (inactive)
GI50 [28]: 18.3 µM (inactive)
GI50 [29]: 18.7 µM (inactive)
GI50 [30]: 16.6 µM (inactive)
GI50 [31]: 14.5 µM (inactive)
GI50 [32]: 18.2 µM (inactive)
GI50 [34]: 20.7 µM (inactive)
GI50 [35]: 16.9 µM (inactive)
GI50 [36]: > 10 µM (inactive)
GI50 [37]: 16.2 µM (inactive)
GI50 [38]: 17.9 µM (inactive)
GI50 [39]: 15.8 µM (inactive)
GI50 [41]: 19.1 µM (inactive)
GI50 [42]: > 10 µM (inactive)
GI50 [43]: 17.7 µM (inactive)
GI50 [44]: 9.91 µM (inactive)
GI50 [45]: 15.2 µM (inactive)
GI50 [57]: 9.64 µM (inactive)
GI50 [58]: 17.5 µM (inactive)
GI50 [47]: 16.8 µM (inactive)
GI50 [48]: 46.9 µM (inactive)
GI50 [49]: 11.9 µM (inactive)
GI50 [50]: 20.3 µM (inactive)

CC(=O)Oc1cc(/C=C/c2ccc(O)cc2)cc(OC(C)=O)c1
GI50 [52]: 37.5 µM (inactive)
GI50 [1]: 24.7 µM (inactive)
GI50 [2]: 48 µM (inactive)
GI50 [3]: 58.1 µM (inactive)
GI50 [4]: 30.9 µM (inactive)
GI50 [5]: 63.5 µM (inactive)
GI50 [6]: 29.9 µM (inactive)
GI50 [7]: 16.3 µM (inactive)
GI50 [8]: 43.2 µM (inactive)
GI50 [9]: 51.3 µM (inactive)
GI50 [10]: 19 µM (inactive)
GI50 [11]: 55.8 µM (inactive)
GI50 [12]: 26.5 µM
GI50 [13]: 19.3 µM (inactive)
GI50 [14]: 36.4 µM (inactive)
GI50 [15]: 64.9 µM (inactive)
GI50 [16]: 4.7 µM (inactive)
GI50 [17]: > 100 µM (inactive)
GI50 [55]: 9.59 µM (inactive)
GI50 [18]: 35.7 µM (inactive)
GI50 [19]: 46 µM (inactive)
GI50 [20]: 18.3 µM (inactive)
GI50 [56]: 64.6 µM (inactive)
GI50 [21]: 22.1 µM (inactive)
GI50 [22]: 18.8 µM (inactive)
GI50 [23]: 25.4 µM (inactive)
GI50 [24]: 11.7 µM (inactive)
GI50 [25]: 58.5 µM (inactive)
GI50 [26]: 33.9 µM (inactive)
GI50 [27]: 24.1 µM (inactive)
GI50 [29]: 12.8 µM (inactive)
GI50 [30]: 28.8 µM (inactive)
GI50 [31]: 66.5 µM (inactive)
GI50 [32]: 24.8 µM (inactive)
GI50 [33]: 28.1 µM (inactive)
GI50 [34]: 25 µM (inactive)
GI50 [35]: 17.7 µM (inactive)
GI50 [36]: 16.8 µM (inactive)
GI50 [37]: > 100 µM (inactive)
GI50 [38]: 35.8 µM (inactive)
GI50 [39]: 21.5 µM (inactive)
GI50 [40]: 26 µM (inactive)
GI50 [41]: 35.6 µM (inactive)
GI50 [42]: 27.2 µM (inactive)
GI50 [43]: 14.5 µM (inactive)
GI50 [44]: 20.7 µM (inactive)
GI50 [45]: 24.9 µM (inactive)
GI50 [46]: 18.2 µM (inactive)
GI50 [57]: 17.3 µM (inactive)
GI50 [47]: 26.1 µM (inactive)
GI50 [48]: 48.2 µM (inactive)
GI50 [49]: 40 µM (inactive)
GI50 [50]: 25.5 µM (inactive)

Source: ChEMBL document CHEMBL1201862, “PubChem BioAssay data set” (2004)
